In patent US20130281399A1, “TREATMENT OF DISEASES BY EPIGENETIC REGULATION” (RVX Therapeutics Inc., priority 2012, published 2013):

Molecular target: T1, Brd4 bromodomain 1 (Homo sapiens, UniProt O60885)
T1 construct: made in house; host or cells: E. coli BL21(DE3)
Assay: Inhibition of binding of tetra-acetylated histone H4 to Brd4 bromodomain 1 (TR-FRET)
Conditions: His-tagged Brd4 bromodomain 1 200 nM, tetra-acetylated histone H4 peptide 25-50 nM, 2 hours room temperature
Description: Proteins were cloned and overexpressed with a N-terminal 6×His tag, then purified by nickel affinity followed by size exclusion chromatography. Briefly, E. coli BL21(DE3) cells were transformed with a recombinant expression vector encoding N-terminally Nickel affinity tagged bromodomains from Brd2, Brd3, Brd4. Cell cultures were incubated at 37° C. with shaking to the appropriate density and induced overnight with IPTG. The supernatant of lysed cells was loaded onto Ni-IDA column for purification. Eluted protein was pooled, concentrated and further purified by size exclusion chromatography. Fractions representing monomeric protein were pooled, concentrated, aliquoted, and frozen at −80° C. for use in subsequent experiments.
For inhibition assays, serially diluted test compound was added to these reactions in a 0.2% final concentration of DMSO. Final buffer concentrations were 30 mM HEPES pH 7.4, 30 mM NaCl, 0.3 mM CHAPS, 20 mM phosphate pH 7.0, 320 mM KF, 0.08% BSA). […] The binding inhibitory activity was shown by a decrease in 665 nm fluorescence relative to 620 nm. IC50 values were determined from a dose response curve.

SMILES | FRET activity (<50 uM)
COc1cc(OC)c2c(=O)[nH]c(-c3ccc(N4CCC(NS(C)(=O)=O)CC4)cc3)nc2c1 [Example 14, N-(1-(4-(5,7-Dimethoxy-4-oxo-3,4-dihydroquinazolin-2-yl)phenyl)piperidin-4-yl)methanesulfonamide] | Active
COc1cc(OC)c2c(=O)[nH]c(-c3ccc(CN4CCC(N(C(C)=O)C(C)C)CC4)cc3)nc2c1 [Example 94, N-(1-(4-(5,7-Dimethoxy-4-oxo-3,4-dihydroquinazolin-2-yl)benzyl)piperidin-4-yl)-N-isopropylacetamide] | Active
COc1cc(OC)c2c(=O)[nH]c(-c3cc(C)c(OCCN4C(=O)c5ccccc5C4=O)c(C)c3)cc2c1 [Example 90, 2-(2-(4-(6,8-Dimethoxy-1-oxo-1,2-dihydroisoquinolin-3-yl)-2,6-dimethylphenoxy)ethyl)isoindoline-1,3-dione] | Inactive
COc1cc(OC)c2c(=O)[nH]c(-c3ccc(CN4CCC(NC(C)C)CC4)cc3)nc2c1 [Example 95, 2-(4-((4-(Isopropylamino)piperidin-1-yl)methyl)phenyl)-5,7-dimethoxyquinazolin-4(3H)-one] | Active
COc1cc(OC)c2c(=O)[nH]c(-c3ccc(N4C[C@@H](C)N[C@@H](C)C4)cc3)nc2c1 [Example 37, 2-(4-((3R,5S)-3,5-Dimethylpiperazin-1-yl)phenyl)-5,7-dimethoxyquinazolin-4(3H)-one] | Active
COCCOc1cc(OC)cc2nc(-c3cc(C)nc(C)c3)[nH]c(=O)c12 [Example 105, 2-(2,6-Dimethylpyridin-4-yl)-7-methoxy-5-(2-methoxyethoxy)quinazolin-4(3H)-one] | Active
COc1cc(OC)c2c(=O)[nH]c(-c3ccc(N4CCC(N(Cc5ccccc5)C(C)=O)CC4)nc3)nc2c1 [Example 49, N-Benzyl-N-(1-(5-(5,7-dimethoxy-4-oxo-3,4-dihydroquinazolin-2-yl)pyridin-2-yl)piperidin-4-yl)acetamide] | Active
COc1cc(OC)c2c(=O)[nH]c(-c3ccc4[nH]c(CCO)cc4c3)nc2c1 [Example 54, 2-(2-(2-Hydroxyethyl)-1H-indol-5-yl)-5,7-dimethoxyquinazolin-4(3H)-one] | Active
COc1cc(OC)c2c(=O)[nH]c(-c3ccc(N4CCC(NC(=O)c5ccccc5)CC4)cc3)nc2c1 [Example 20, N-(1-(4-(5,7-Dimethoxy-4-oxo-3,4-dihydroquinazolin-2-yl)phenyl)piperidin-4-yl)benzamide] | Inactive
COc1cc(OC)c2c(=O)[nH]c(-c3ccc(N4CCC(NCC5CC5)C4)cc3)nc2c1 (stereo not shown) [Example 4, 2-(4-(3-(cyclopropylmethylamino)pyrrolidin-1-yl)phenyl)-5,7-dimethoxyquinazolin-4(3H)-one] | Active
COc1cc(OC)c2c(=O)[nH]c(-c3ccc(Nc4ccc(C)cc4)cc3)nc2c1 [Example 61, 5,7-Dimethoxy-2-(4-(p-tolylamino)phenyl)quinazolin-4(3H)-one] | Inactive
COc1cc(OC)c2c(=O)[nH]c(-c3ccc(N4C[C@@H](C)N(C(C)C)[C@@H](C)C4)cc3)nc2c1 [Example 42, 2-(4-((3R,5S)-4-Isopropyl-3,5-dimethylpiperazin-1-yl)phenyl)-5,7-dimethoxyquinazolin-4(3H)-one] | Active
COc1cc(OC)c2c(=O)[nH]c(-c3ccc(N4CCN(C(=O)C(C)C)CC4)cc3)nc2c1 [Example 17, 2-(4-(4-Isobutyrylpiperazin-1-yl)phenyl)-5,7-dimethoxyquinazolin-4(3H)-one] | Active
COc1cc(OC)c2c(=O)[nH]c(-c3ccc(N4CCN(C(=O)C5CC5)CC4)cc3)nc2c1 [Example 28, 2-(4-(4-(Cyclopropanecarbonyl)piperazin-1-yl)phenyl)-5,7-dimethoxyquinazolin-4(3H)-one] | Active
COc1cc(OC)c2c(=O)[nH]c(-c3ccc(N4CCC(=O)CC4)cc3)nc2n1 [Example 52, 5,7-Dimethoxy-2-(4-(4-oxopiperidin-1-yl)phenyl)pyrido[2,3-d]pyrimidin-4(3H)-one] | Inactive
COc1cc(OC)c2c(=O)[nH]c(-c3cc(C)c(OCCC4CN(C(C)=O)C4)c(C)c3)nc2c1 [Example 5, 2-(4-(2-(1-acetylazetidin-3-yl)ethoxy)-3,5-dimethylphenyl)-5,7-dimethoxyquinazolin-4(3H)-one] | Active
COc1cc(OC)c2c(=O)[nH]c(-c3cc(C)c(OCCN4Cc5ccccc5C4)c(C)c3)nc2c1 [Example 65, 2-(4-(2-(Isoindolin-2-yl)ethoxy)-3,5-dimethylphenyl)-5,7-dimethoxyquinazolin-4(3H)-one] | Active

SMILES | FRET activity (<50 uM)
COc1cc(OC)c2c(=O)[nH]c(-c3ccc(N4CCN(C(=O)c5ccncc5)CC4)cc3)nc2c1 [Example 23, 2-(4-(4-Isonicotinoylpiperazin-1-yl)phenyl)-5,7-dimethoxyquinazolin-4(3H)-one] | Active
COc1cc(OC)c2c(=O)[nH]c(-c3ccc(NS(C)(=O)=O)cc3)nc2c1 [Example 59, N-(4-(5,7-Dimethoxy-4-oxo-3,4-dihydroquinazolin-2-yl)phenyl)methanesulfonamide] | Active
COc1cc(OC)c2c(=O)[nH]c(-c3ccc(N4CCNC(C)C4)cc3)nc2c1 (stereo not shown) [Example 48, 5,7-Dimethoxy-2-(4-(3-methylpiperazin-1-yl)phenyl)quinazolin-4(3H)-one] | Active
COc1cc(OC)c2c(=O)[nH]c(-c3ccc(N4CCN(CCO)CC4)cc3)nc2c1 [Example 1, 2-(4-(4-(2-hydroxyethyl)piperazin-1-yl)phenyl)-5,7-dimethoxyquinazolin-4(3H)-one] | Active
COc1cc(OC)c2c(=O)[nH]c(-c3ccc(N4CCN(Cc5ccc(F)cc5)CC4)cc3)nc2c1 [Example 29, 2-(4-(4-(4-Fluorobenzyl)piperazin-1-yl)phenyl)-5,7-dimethoxyquinazolin-4(3H)-one] | Inactive
COc1cc(OC)c2c(=O)[nH]c(-c3cc(C)c(OCCN4CCCCC4)c(C)c3)nc2c1 [Example 72, 2-(3,5-Dimethyl-4-(2-(piperidin-1-yl)ethoxy)phenyl)-5,7-dimethoxyquinazolin-4(3H)-one] | Active
CCN(C(C)=O)C1CCN(c2ccc(-c3nc4cc(OC)cc(OC)c4c(=O)[nH]3)cc2)CC1 [Example 35, N-(1-(4-(5,7-Dimethoxy-4-oxo-3,4-dihydroquinazolin-2-yl)phenyl)piperidin-4-yl)-N-ethylacetamide] | Active
COc1cc(OC)c2c(=O)[nH]c(-c3ccc(N4CCN(C(=O)c5cccs5)CC4)cc3)nc2c1 [Example 24, 5,7-Dimethoxy-2-(4-(4-(thiophene-2-carbonyl)piperazin-1-yl)phenyl)quinazolin-4(3H)-one] | Active
COc1cc(OC)c2c(=O)[nH]c(-c3ccc4[nH]c(CN(C)C)cc4c3)nc2c1 [Example 58, 2-(2-((Dimethylamino)methyl)-1H-indol-5-yl)-5,7-dimethoxyquinazolin-4(3H)-one] | Active
COc1cc(OC)c2c(=O)[nH]c(-c3ccc(N4CCCN(C(C)=O)CC4)cc3)nc2c1 [Example 32, 2-(4-(4-Acetyl-1,4-diazepan-1-yl)phenyl)-5,7-dimethoxyquinazolin-4(3H)-one] | Active
COc1cc(OC)c2c(=O)[nH]c(-c3ccc(N4CCN(C(C)=O)CC4)cc3)nc2c1 [Example 11, 2-(4-(4-Acetylpiperazin-1-yl)phenyl)-5,7-dimethoxyquinazolin-4(3H)-one] | Active
Cc1cc(-c2nc3cc(F)cc(F)c3c(=O)[nH]2)cc(C)c1OCCN1CCCC1 [Example 85, 2-(3,5-Dimethyl-4-(2-(pyrrolidin-1-yl)ethoxy)phenyl)-5,7-difluoroquinazolin-4(3H)-one] | Inactive
COc1cc(OC)c2c(=O)[nH]c(-c3ccc(N4CCC(NC(C)=O)C4)cc3)nc2c1 (stereo not shown) [Example 39, N-(1-(4-(5,7-Dimethoxy-4-oxo-3,4-dihydroquinazolin-2-yl)phenyl)pyrrolidin-3-yl)acetamide] | Active
COc1cccc(-c2nc3cc(OC)cc(OC)c3c(=O)[nH]2)c1 [Example 116, 5,7-Dimethoxy-2-(3-methoxyphenyl)quinazolin-4(3H)-one] | Inactive
COc1cc(OC)c2c(=O)[nH]c(-c3ccc4[nH]c(CO)cc4c3)nc2c1 [Example 53, 2-(2-(Hydroxymethyl)-1H-indol-5-yl)-5,7-dimethoxyquinazolin-4(3H)-one] | Active
COc1cc(OC)c2c(=O)[nH]c(-c3ccc(N4C[C@@H](C)N(C(C)=O)[C@@H](C)C4)cc3)nc2c1 [Example 36, 2-(4-((3R,5S)-4-Acetyl-3,5-dimethylpiperazin-1-yl)phenyl)-5,7-dimethoxyquinazolin-4(3H)-one] | Active
COc1cc(OC)c2c(=O)[nH]c(-c3ccc(OC4CCN(C(=O)N(C)C)CC4)cc3)nc2c1 [Example 63, 4-(4-(5,7-Dimethoxy-4-oxo-3,4-dihydroquinazolin-2-yl)phenoxy)-N,N-dimethylpiperidine-1-carboxamide] | Active
